Assay results from patent US20230000852A1, “Treatment of Dermal Cytokine Storm Syndromes” (Bridge Pharma, Inc., priority 2021, published 2023).
Counter-ions that a name gives are not always drawn.

Columns and labels:
IL-8 = assay: PHA-induced IL-8 release from human leucocytes (buffy coats); format: cell-based; details: Leucocyte, 10 uM, 30 min pre-incubation, PHA 5 μg/ml 16 hours
Procedure: (§1) The objective of this study was to assess the ability of norketotifen to inhibit cytokine release from stimulated human leucocytes.
(§2) The study was conducted in two phases. The first phase included optimization of the test methodology and including dose-range finding studies, using buffy coats from 3 human donors, stimulated with phytohemagglutinin (PHA). Following optimization of the test conditions, a final protocol was issued. In the ensuing Main Study, white blood cells (buffy coats) from 5 healthy human donors were stimulated with PHA, 5 μg/ml. The concentrations of the test article and the duration of exposure were optimized to obtain acceptable dose-response ratios. Thus, the inhibitory effects of three concentrations of NK and one concentration of ketotifen were evaluated in the Main Study. The buffy coats containing white blood cells from 5 male human donors were resuspended in assay media and were pre-incubated for 30 min with either vehicle/saline, ketotifen 4.3 μg/ml (10 μM) and norketotifen 0.4 μg/ml, 4.1 μg/ml and 41 μg/ml (1.0; 10 and 100 μM). Following these preincubations, the white blood cells were stimulated for 16 hours with PHA, 5 μg/ml. The cell system supernatants were then harvested and stored frozen pending analyses.
(§3) The concentration of the test articles had to be high in this ex vivo study since the test kit used a high concentration of the agonist PHA (5 μg/ml) and a long exposure time (16 hrs).

IL-4 = assay: PHA-induced IL-4 release from human leucocytes (buffy coats); format: cell-based; details: Leucocyte, 10 uM, 30 min pre-incubation, PHA 5 μg/ml 16 hours
Procedure: as §1, §2, §3

IL-2 = assay: PHA-induced IL-2 release from human leucocytes (buffy coats); format: cell-based; details: Leucocyte, 10 uM, 30 min pre-incubation, PHA 5 μg/ml 16 hours
Procedure: as §1, §2, §3

[1] = system: human leucocytes (buffy coats); assay: Cytokine and chemokine release from stimulated human leucocytes, overall; format: cell-based; details: PHA 5 μg/ml, 16 hours
Procedure: as §1
as §2, with “analyses. […]” for “analyses.”

INF-γ = assay: PHA-induced INF-γ release from human leucocytes (buffy coats); format: cell-based; details: Leucocyte, 10 uM, 30 min pre-incubation, PHA 5 μg/ml 16 hours
Procedure: as §1, §2, §3

TNFα = assay: PHA-induced TNFα release from human leucocytes (buffy coats); format: cell-based; details: Leucocyte, 10 uM, 30 min pre-incubation, PHA 5 μg/ml 16 hours
Procedure: as §1, §2, §3

IL-6 = assay: PHA-induced IL-6 release from human leucocytes (buffy coats); format: cell-based; details: Leucocyte, 10 uM, 30 min pre-incubation, PHA 5 μg/ml 16 hours
Procedure: as §1, §2, §3

IL-10 = assay: PHA-induced IL-10 release from human leucocytes (buffy coats); format: cell-based; details: Leucocyte, 10 uM, 30 min pre-incubation, PHA 5 μg/ml 16 hours
Procedure: as §1, §2, §3

IL-1β = assay: PHA-induced IL-1β release from human leucocytes (buffy coats); format: cell-based; details: Leucocyte, 10 uM, 30 min pre-incubation, PHA 5 μg/ml 16 hours
Procedure: as §1, §2, §3

IL-13 = assay: PHA-induced IL-13 release from human leucocytes (buffy coats); format: cell-based; details: Leucocyte, 10 uM, 30 min pre-incubation, PHA 5 μg/ml 16 hours
Procedure: as §1, §2, §3

[2] = system: shaved skin of Gottingen minipigs; assay: Skin irritation study in Göttingen mini pigs; format: in vivo, Göttingen minipigs; details: dermal once daily for four consecutive days
Procedure: To assess possible skin irritation following repeated dermal application of racemic norketotifen as a hydrogen fumarate salt (NK-HF) to Gottingen Minipigs.
Standard creamy polyethylene-glycol (PEG400/PEG4000; herein called PEG) formulations containing 0% (vehicle control), 5% or 10% of RS-norketotifen hydrogen fumarate (NK-HF) were prepared and applied once daily for four consecutive days to three marked areas (3 inches×3 inches) of the shaved skin of Gottingen minipigs pigs (2M+2F, 7-8 months; 9.7-11.6 kg). The volumes used for each application were 3.5 mL). Four animals were used in this study. The number of animals was intended to satisfy regulatory guidelines, to meet general scientific principles and to meet Bridge Pharma's animal-sparing commitments. The vehicle and the test articles were applied once daily for four consecutive days, and erythema (redness), edema (swelling) and eschar (scab) were assessed by the Study Director, who personally assessed and scored the appearance of the skin before the daily cream applications and four hours thereafter on Days 1 through 4. Additional inspections and scorings were performed on Day 5, twenty-four hours after the last (Day 4) applications of the vehicle and test articles.

[3] = system: IL31-induced (SC) pruritus; assay: IL-31-induced pruritus in mice; format: in vivo; details: for Pruritic Bouts Mean ± SEM: 10 mg/kg oral 60 minutes before murine IL31 1.0 μg/30 gram SC, counted for 120 min, N 8; for Protection: 10 mg/kg oral 60 minutes before murine IL31 SC, vs vehicle
Procedure: To determine if NK inhibits IL31-induced pruritus in mice. Studies have now been performed, using murine IL31 as a pruritogen. Mice were dosed orally with a test article exactly 60 minutes before murine IL31 at a dose of 1.0 μg/30 gram body weight was injected subcutaneously into a previously depilated area on the rostral part of the back of mice. IL31 was dissolved in phosphate buffered saline (PBS) with 0.1% bovine serum albumin (BSA). The injected volume was 0.1 ml/mouse. The bouts of scratching were counted for 120 min, starting 30 min after the injection of IL31. The bouts of scratching were counted by trained laboratory personnel who were unaware of the pretreatment of the animals. Oclacitinib (Apoquel®) is a Janus kinase inhibitor that is the worldwide market leader for oral treatment of atopic dermatitis in dogs.

[4] = Dermal and plasma concentrations of NK after oral dosing to dogs; format: in vivo; details: for AUC∞ Plasma / MRT Plasma / T1/2 Plasma / AUC∞ Skin / MRT Skin / T1/2 Skin: oral S-NK 8.0 mg/kg/day for 28 days, dogs (N = 5)
Procedure: The purpose was to determine drug concentrations and calculate pharmacokinetics in the skin and plasma of dogs during and following daily oral administration of S-NK-HF (the S-isomer of norketotifen hydrogen fumarate) for four weeks.
Five male beagle dogs, weighing 11.2-13.9 kg (2-4 years old) were included in the study. All animals were administered p.o. doses of the test article 8.0 mg/kg/day as a hydrogen fumarate salt, equal to 5.6 mg/kg/day of the free base. A single isomer of NK was used, since an objective of this study was also to assess the racemization of the NK isomers. The animals were dosed once daily for four weeks followed by daily observations and tissue sampling for an additional two-week washout period.
Multiple plasma samples and skin biopsies were taken from each dog on Day 1 and Day 28 of drug administration. The plasma and skin samplings were performed at pre-dose, and at 2, 6, 12, and 24 hours post-dose. Plasma and skin samples were also taken intermittently at predetermined intervals during the 28-days dosing period and up to the last day of the study, which was Day 42. Blood samples were taken from v. cephalica antebrachii. Skin biopsies were taken from the area between the mid ventral to lateral abdominal areas, using a 6 mm skin biopsy punch. Subcutaneous fat deposits were carefully trimmed from the skin samples and the skin samples were then weighed. All plasma and skin samples were analyzed using LC/MS/MS methodology.

Structure (SMILES): CN1CCC(=C2c3ccccc3CC(=O)c3sccc32)CC1 [Ketotifen, ketotifen, reference compound]
- inhibition at 10 µM (IL-8): 20%
- inhibition at 10 µM (IL-4): 0%
- inhibition at 10 µM (IL-2): 0%
- Inhibition of release of cytokines and chemokines from human white blood cells (in words) [1]: No statistically significant inhibition
- inhibition at 10 µM (INF-γ): 0%
- inhibition at 10 µM (TNFα): 0%
- inhibition at 10 µM (IL-6): 0%
- inhibition at 10 µM (IL-10): 0%
- inhibition at 10 µM (IL-1β): 0%
- inhibition at 10 µM (IL-13): 0%

Structure (SMILES): O=C(O)C=CC(=O)O.O=C1Cc2ccccc2C(=C2CCNCC2)c2ccsc21 [NK-HF, RS-norketotifen hydrogen fumarate]
- Skin irritation (erythema, edema, eschar) ([2]; 5% in creamy PEG formulation): did not induce any irritation
- Skin irritation (erythema, edema, eschar) ([2]; 10% in creamy PEG formulation): did not induce any irritation
- Pruritic Bouts Mean ± SEM [3]: 93 ± 10
- Protection [3]: 54%

Structure (SMILES): CNS(=O)(=O)C[C@H]1CC[C@H](N(C)c2ncnc3[nH]ccc23)CC1 [Oclacitinib maleate, Oclacitinib, reference compound]
- Pruritic Bouts Mean ± SEM [3]: 116 ± 29
- Protection [3]: 43%

Structure (SMILES): O=C(O)/C=C/C(=O)O.O=C1Cc2ccccc2C(=C2CCNCC2)c2ccsc21 [R-NK, R-norketotifen]
- AUC∞ Plasma [4]: 1658 ng*hr/mL or g
- MRT Plasma [4]: 14.1 h
- T1/2 Plasma [4]: 7.7 h
- AUC∞ Skin [4]: 20376 ng*hr/mL or g
- MRT Skin [4]: 159.1 h
- T1/2 Skin [4]: 157.0 h

Structure (SMILES): O=C1Cc2ccccc2C(=C2CCNCC2)c2ccsc21 [S-NK, S-norketotifen]
- Racemization after oral administration of the single isomer ([4]; dogs, oral): RS-norketotifen was rapidly formed
- AUC∞ Plasma [4]: 1627 ng*hr/mL or g
- MRT Plasma [4]: 11.3 h
- T1/2 Plasma [4]: 10.9 h
- AUC∞ Skin [4]: 25710 ng*hr/mL or g
- MRT Skin [4]: 159.0 h
- T1/2 Skin [4]: 162.7 h
